From ChEMBL document CHEMBL3632564, “Synthesis of 17-membered azalides from a 16-membered macrolide utilizing amide-selective silane reduction” (2015)
In brackets after ≈: the same amount, converted by molar mass.

How the values were obtained:
Format in all cases: functional
[1] = tested on: Haemophilus influenzae; assay: Antibacterial activity against beta-lactamase-negative ampicillin-resistant Gram-negative Haemophilus influenzae ME587 after 18 hrs by agar dilution method; settings: ME587, 18 h
[2] = tested on: Streptococcus pneumoniae; assay: Antibacterial activity against penicillin-susceptible Gram-positive Streptococcus pneumoniae S-223 after 18 hrs by agar dilution method; settings: S-223, 18 h
[3] = tested on: Streptococcus pneumoniae; assay: Antibacterial activity against penicillin-intermediate Gram-positive Streptococcus pneumoniae TY-5745 after 18 hrs by agar dilution method; settings: TY-5745, 18 h
[4] = tested on: Streptococcus pneumoniae; assay: Antibacterial activity against penicillin-resistant Gram-positive Streptococcus pneumoniae JPS317 after 18 hrs by agar dilution method; settings: JPS317, 18 h

Structure (SMILES)	MIC [1]	MIC [2]	MIC [3]	MIC [4]
CC[C@H]1OC(=O)CC[C@H](C)[C@@H](O[C@@H]2O[C@H](C)C[C@H](N(C)C)[C@H]2O)[C@@H](CC=O)C[C@@H](C)CN(C)CC/C(C)=C/[C@@H]1CO	4 µg/mL (≈ 6.86 µM)	8 µg/mL (≈ 13.7 µM)	16 µg/mL (≈ 27.5 µM)	8 µg/mL (≈ 13.7 µM)
CC[C@H]1OC(=O)CC[C@H](C)[C@@H](O[C@@H]2O[C@H](C)C[C@H](N(C)C)[C@H]2O)[C@@H](CC=O)C[C@@H](C)N(C)CCC/C(C)=C/[C@@H]1CO	4 µg/mL (≈ 6.86 µM)	8 µg/mL (≈ 13.7 µM)	32 µg/mL (≈ 54.9 µM)	8 µg/mL (≈ 13.7 µM)
CC[C@H]1OC(=O)CC[C@H](C)[C@@H](O[C@@H]2O[C@H](C)C[C@H](N(C)C)[C@H]2O)[C@@H](CC=O)C[C@@H](C)N(C)C/C=C/C(C)=C/[C@@H]1CO	4 µg/mL (≈ 6.89 µM)	16 µg/mL (≈ 27.5 µM)	32 µg/mL (≈ 55.1 µM)	32 µg/mL (≈ 55.1 µM)
CC[C@H]1OC(=O)CC[C@H](C)[C@@H](O[C@@H]2O[C@H](C)C[C@H](N(C)C)[C@H]2O)[C@@H](CC=O)C[C@@H](C)C(=O)/C=C/C(C)=C/[C@@H]1CO	1 µg/mL (≈ 1.77 µM)	0.25 µg/mL (≈ 0.442 µM)	1 µg/mL (≈ 1.77 µM)	0.5 µg/mL (≈ 0.884 µM)
CC[C@H]1OC(=O)[C@H](C)[C@@H](O[C@H]2C[C@@](C)(OC)[C@@H](O)[C@H](C)O2)[C@H](C)[C@@H](O[C@@H]2O[C@H](C)C[C@H](N(C)C)[C@H]2O)[C@](C)(O)C[C@@H](C)CN(C)[C@H](C)[C@@H](O)[C@]1(C)O [AZITHROMYCIN]	1 µg/mL (≈ 1.34 µM)	0.25 µg/mL (≈ 0.334 µM)	1 µg/mL (≈ 1.34 µM)	8 µg/mL (≈ 10.7 µM)
